In paper PMC2690590, “Functional recombinant MHC class II molecules and high-throughput peptide-binding assays” (Immunome Research, 2009):
Where two headings read alike, the source gives them in different places. Where no end group is shown, it is not given here.

Tests used:
[1] = target: T1, DR2a (DRA*0101/DRB5*0101) (Homo sapiens, UniProt P01903+Q30154); test: Competitive LOCI peptide-MHC-II binding assay, DR2a
T1 construct: DRA*01011-181LZFos; DRB5*01011-190LZJunBSP; made in house

[2] = target: T1, DR2a (DRA*0101/DRB5*0101); test: Direct LOCI peptide-MHC-II binding assay, DR2a
DR3 (DRA*0101/DRB1*0301) = target: T2, DR3 (DRA*0101/DRB1*0301) (Homo sapiens, UniProt P01903+P01911, A100K/A102G/A103R/A169T/F55Y/I96L/K41T/L162R/M171V/P40S/Q125H/Q178H/Q39Y/R42S/S66N/T106N/T262R/W38E/Y61H); test: Direct LOCI peptide-MHC-II binding assay, DR3
T2 construct: DRA*01011-181LZFos; DRB1*03011-190LZJunBSP; made in house

DR4 (DRA*0101/DRB1*0401) = target: T3, DR4 (DRA*0101/DRB1*0401) (Homo sapiens, UniProt P01903+P01911, A100K/A169T/F76Y/I96L/K127E/L162R/M171V/N62H/P40V/Q125Y/R42H/S133A/S149N/S66Y/V115G/V209L/W38E); test: Direct LOCI peptide-MHC-II binding assay, DR4
T3 construct: DRA*01011-181LZFos; DRB1*04011-190LZJunBSP; made in house

[3] = target: T4, DRB1*0813 (DRA*0101/DRB1*0813) (Homo sapiens, UniProt P01903+P01911, A100R/A103L/A169T/F76Y/H45Y/I96L/K41T/L162R/M171V/P40S/Q125H/Q178H/Q39Y/Q99D/R218S/R42G/S66Y/V115G/W38E); test: Direct LOCI peptide-MHC-II binding assay, DRB1*0813
T4 construct: DRA*01011-181LZFos; DRB1*08131-190LZJunBSP; made in house

[4] = target: T5, DRB3*0301 (DRA*0101/DRB3*0301) (Homo sapiens, UniProt P01903+P79483, A169T/A212P/D57E/G115V/L67V/Q178H/R103Q/R40L/Y55F); test: Direct LOCI peptide-MHC-II binding assay, DRB3*0301
T5 construct: DRA*01011-181LZFos; DRB3*03011-190LZJunBSP; made in house

[5] = target: DP401 (DPA1*0103/DPB1*0401) (Homo sapiens, UniProt P04440+P20036); test: Direct LOCI peptide-MHC-II binding assay, DP401
I-E^d = target: T6, I-E^d (Mus musculus, UniProt P01904+P01915); test: Direct LOCI peptide-MHC-II binding assay, I-E^d
T6 construct: I-E^dA1-191LZFos; I-E^dB1-198LZJunBSP; made in house

Compound	Kd [4] [nM]	Kd (I-E^d) [nM]	Kd [2] [nM]	Kd (DR3 (DRA*0101/DRB1*0301)) [nM]	Kd [3] [nM]	IC50 ([1]; DR2a Komp IC50 (nM)) [nM]	Kd (DR4 (DRA*0101/DRB1*0401); DR4 affinity (nM)) [nM]	Kd ([5]; DP401 affinity (nM)) [nM]	Kd (I-E^d; I-E^D affinity (nM)) [nM]	also measured
CSCC[C@H](NC(=O)[C@H](CCCNC(=N)N)NC(=O)[C@H](CCSC)NC(=O)[C@H](CCCCN)NC(=O)[C@H](CO)NC(=O)[C@@H](NC(=O)[C@@H]1CCCN1C(=O)[C@H](CCCCN)NC(=O)[C@@H]1CCCN1C(=O)[C@@H]1CCCN1C(=O)[C@H](CCCCN)NC(=O)[C@@H]1CCCN1C(=O)[C@@H](N)CC(C)C)C(C)C)C(=O)N[C@@H](C)C(=O)N[C@H](C(=O)N1CCC[C@H]1C(=O)N[C@@H](CC(C)C)C(=O)N[C@@H](CC(C)C)C(=O)N[C@@H](CCSC)C(=O)N[C@@H](CCC(N)=O)C(=O)N[C@@H](C)C(=O)N[C@@H](CC(C)C)C(=O)N1CCC[C@H]1C(=O)N[C@@H](CCSC)C(=O)N[C@@H](Cc1ccc(O)cc1)C(=O)N[C@@H](Cc1c[nH]cn1)C(=O)N[C@@H](Cc1c[nH]cn1)C(=O)N[C@@H](Cc1c[nH]cn1)C(=O)N[C@@H](Cc1c[nH]cn1)C(=O)N[C@@H](Cc1c[nH]cn1)C(=O)N[C@@H](Cc1c[nH]cn1)C(=O)O)[C@@H](C)O [CLIP 6xH]										IC50 ([1]; competitive LOCI, 4 nM biotin-PEG-HA306–318 agonist, β chain without biotin, α/β 13/5 nM, pH 6-7.5, L243, 48 h 18°C, average of 2–4 measurements, read-out: DR2a Komp IC50): 1 nM; Kd ([2]; read-out: DR2a pH6 affinity): 1 nM; Kd (DR3 (DRA*0101/DRB1*0301); read-out: DR3 affinity): 1 nM; Kd (DR4 (DRA*0101/DRB1*0401); read-out: DR4 affinity): 1 nM; Kd ([3]; read-out: DRB1*0813 affinity): 2 nM; Kd ([4]; read-out: DRB3*0301 affinity): 1 nM; Kd ([5]; read-out: DP401 affinity): 1 nM
CC[C@H](C)[C@H](NC(=O)CNC(=O)[C@@H](NC(=O)[C@H](Cc1ccccc1)NC(=O)[C@H](CCCCN)NC(=O)[C@H](CO)NC(=O)[C@H](CC(N)=O)NC(=O)[C@H](C)NC(=O)[C@H](CCCCN)NC(=O)[C@@H](NC(=O)[C@H](Cc1ccc(O)cc1)NC(=O)[C@@H](N)CCC(N)=O)[C@@H](C)CC)[C@@H](C)CC)C(=O)N[C@H](C(=O)N[C@@H](CCC(=O)O)C(=O)O)[C@@H](C)O [Clostridium tetanus]	1	1500								Kd [5]: 56 nM
PLKAEIAQRLEDV [Influenza]	11	> 5000	65	134	> 5000					IC50 [1]: 41 nM; Kd (DR4 (DRA*0101/DRB1*0401)): 2680 nM; Kd [5]: 2090 nM
YILFLVKMNALRRLPV										IC50 ([1]; pH 6-7.5, 48 h 18°C, read-out: DR2a Komp IC50): 20 nM; Kd ([2]; pH 6, 48 h 18°C, read-out: DR2a pH6 affinity): 5 nM; Kd (DR3 (DRA*0101/DRB1*0301); pH 6-7, 48 h 18°C, read-out: DR3 affinity): 39 nM; Kd ([3]; pH 6-7.5, 48 h 18°C, read-out: DRB1*0813 affinity): 78 nM; Kd ([4]; pH 7, 48 h 18°C, read-out: DRB3*0301 affinity): 3 nM; Kd ([5]; pH 7, 48 h 18°C, read-out: DP401 affinity): 45 nM; Kd (I-E^d; 48 h 18°C, read-out: I-E^D affinity): 582 nM
GVTYEIDLTNKN [Mycobact leprea]	> 5000		> 5000	4350	> 5000	> 5000	2550	> 5000	> 5000	
WMARRHAER [Brucella]		6	> 5000							IC50 [1]: > 5000 nM
CC[C@H](C)[C@H](NC(=O)[C@@H](N)CCCCN)C(=O)N[C@@H](CC(C)C)C(=O)N[C@@H](CCC(=O)O)C(=O)N1CCC[C@H]1C(=O)N[C@@H](Cc1ccccc1)C(=O)N[C@@H](CCCNC(=N)N)C(=O)N[C@@H](CCCCN)C(=O)N[C@@H](Cc1ccc(O)cc1)C(=O)N[C@H](C(=O)N[C@@H](C)C(=O)N[C@@H](Cc1ccccc1)C(=O)N[C@H](C(=O)N[C@H](C(=O)N1CCC[C@H]1C(=O)O)[C@@H](C)CC)[C@@H](C)O)[C@@H](C)O	1020		16	18	11	1	1600	30	2200	
PIVQNIQGQMVHQ [HIV]	23		447	471	> 5000	852	> 5000	> 5000	> 5000	
CC[C@H](C)[C@H](NC(=O)[C@@H](N)Cc1ccc(O)cc1)C(=O)N[C@@H](CC(=O)O)C(=O)N[C@H](C(=O)N[C@@H](Cc1c[nH]c2ccccc12)C(=O)N[C@@H](CC(C)C)C(=O)NCC(=O)NCC(=O)N[C@@H](CC(C)C)C(=O)N[C@@H](C)C(=O)N[C@@H](CCC(=O)O)C(=O)N[C@@H](CC(N)=O)C(=O)N[C@@H](Cc1ccccc1)C(=O)N[C@@H](CC(C)C)C(=O)N1CCC[C@H]1C(=O)N[C@@H](Cc1ccc(O)cc1)C(=O)O)C(C)C [Thyroid peroxidase]	3180		2140	> 5000	> 5000	691	> 5000	602	> 5000	
